According to ChEMBL document CHEMBL1149477, “Monocyclic thiophenes as protein tyrosine phosphatase 1B inhibitors: capturing interactions with Asp48” (Bioorg Med Chem Lett, 2006):
The source made the active and inactive calls. The rule behind the calls is not given here.

target: T1, Receptor-type tyrosine-protein phosphatase C (Homo sapiens, UniProt P08575); experiment: Inhibition of CD45
T1 sequence (P08575 whole entry): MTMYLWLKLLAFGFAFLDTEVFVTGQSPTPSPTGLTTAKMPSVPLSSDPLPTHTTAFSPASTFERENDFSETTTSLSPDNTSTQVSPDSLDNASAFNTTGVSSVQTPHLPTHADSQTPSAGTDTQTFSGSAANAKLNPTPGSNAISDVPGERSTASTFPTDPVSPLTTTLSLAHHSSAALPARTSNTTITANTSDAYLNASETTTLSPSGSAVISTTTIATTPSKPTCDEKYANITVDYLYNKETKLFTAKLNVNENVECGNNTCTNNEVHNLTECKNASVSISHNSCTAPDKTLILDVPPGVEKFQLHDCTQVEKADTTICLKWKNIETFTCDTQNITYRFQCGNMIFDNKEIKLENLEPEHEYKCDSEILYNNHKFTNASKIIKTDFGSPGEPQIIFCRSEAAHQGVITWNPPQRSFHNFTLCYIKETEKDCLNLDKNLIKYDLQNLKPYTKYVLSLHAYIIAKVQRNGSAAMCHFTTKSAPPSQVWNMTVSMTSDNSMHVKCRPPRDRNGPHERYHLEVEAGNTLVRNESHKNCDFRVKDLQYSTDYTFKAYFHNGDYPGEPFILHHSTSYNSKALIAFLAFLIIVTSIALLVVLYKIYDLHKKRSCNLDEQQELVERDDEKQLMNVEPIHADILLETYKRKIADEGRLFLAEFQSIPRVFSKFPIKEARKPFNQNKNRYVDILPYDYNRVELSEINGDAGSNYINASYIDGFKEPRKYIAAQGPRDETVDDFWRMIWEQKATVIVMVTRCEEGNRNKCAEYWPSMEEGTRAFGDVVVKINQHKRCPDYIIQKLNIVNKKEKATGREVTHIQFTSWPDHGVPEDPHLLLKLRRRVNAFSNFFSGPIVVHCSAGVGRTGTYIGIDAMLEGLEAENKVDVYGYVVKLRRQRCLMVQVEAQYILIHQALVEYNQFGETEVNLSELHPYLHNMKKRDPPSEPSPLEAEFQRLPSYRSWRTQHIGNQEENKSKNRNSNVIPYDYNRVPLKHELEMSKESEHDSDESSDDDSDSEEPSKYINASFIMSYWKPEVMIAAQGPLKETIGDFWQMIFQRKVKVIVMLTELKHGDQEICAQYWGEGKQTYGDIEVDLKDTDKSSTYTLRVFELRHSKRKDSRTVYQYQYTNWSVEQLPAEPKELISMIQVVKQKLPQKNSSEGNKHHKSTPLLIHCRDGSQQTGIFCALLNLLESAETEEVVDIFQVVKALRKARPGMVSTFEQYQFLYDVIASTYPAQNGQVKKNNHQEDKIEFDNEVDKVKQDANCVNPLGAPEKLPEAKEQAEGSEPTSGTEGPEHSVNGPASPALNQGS

Ki [µM] | Structure (SMILES)
33 | O=C(O)COc1c(C(=O)O)sc(-c2ccc(NC(=O)CC(=O)O)cc2)c1Br
64 | CN(C)c1ccc(-c2sc(C(=O)O)c(OCC(=O)O)c2Br)cc1
55 | O=C(O)COc1c(C(=O)O)sc(-c2ccc(NC(=O)c3cccnc3)cc2)c1Br
26 | O=C(O)COc1c(C(=O)O)sc(-c2ccccc2)c1Br

target: Receptor-type tyrosine-protein phosphatase F (Homo sapiens, UniProt P10586); experiment: Inhibition of LAR
Sequence (P10586 whole entry): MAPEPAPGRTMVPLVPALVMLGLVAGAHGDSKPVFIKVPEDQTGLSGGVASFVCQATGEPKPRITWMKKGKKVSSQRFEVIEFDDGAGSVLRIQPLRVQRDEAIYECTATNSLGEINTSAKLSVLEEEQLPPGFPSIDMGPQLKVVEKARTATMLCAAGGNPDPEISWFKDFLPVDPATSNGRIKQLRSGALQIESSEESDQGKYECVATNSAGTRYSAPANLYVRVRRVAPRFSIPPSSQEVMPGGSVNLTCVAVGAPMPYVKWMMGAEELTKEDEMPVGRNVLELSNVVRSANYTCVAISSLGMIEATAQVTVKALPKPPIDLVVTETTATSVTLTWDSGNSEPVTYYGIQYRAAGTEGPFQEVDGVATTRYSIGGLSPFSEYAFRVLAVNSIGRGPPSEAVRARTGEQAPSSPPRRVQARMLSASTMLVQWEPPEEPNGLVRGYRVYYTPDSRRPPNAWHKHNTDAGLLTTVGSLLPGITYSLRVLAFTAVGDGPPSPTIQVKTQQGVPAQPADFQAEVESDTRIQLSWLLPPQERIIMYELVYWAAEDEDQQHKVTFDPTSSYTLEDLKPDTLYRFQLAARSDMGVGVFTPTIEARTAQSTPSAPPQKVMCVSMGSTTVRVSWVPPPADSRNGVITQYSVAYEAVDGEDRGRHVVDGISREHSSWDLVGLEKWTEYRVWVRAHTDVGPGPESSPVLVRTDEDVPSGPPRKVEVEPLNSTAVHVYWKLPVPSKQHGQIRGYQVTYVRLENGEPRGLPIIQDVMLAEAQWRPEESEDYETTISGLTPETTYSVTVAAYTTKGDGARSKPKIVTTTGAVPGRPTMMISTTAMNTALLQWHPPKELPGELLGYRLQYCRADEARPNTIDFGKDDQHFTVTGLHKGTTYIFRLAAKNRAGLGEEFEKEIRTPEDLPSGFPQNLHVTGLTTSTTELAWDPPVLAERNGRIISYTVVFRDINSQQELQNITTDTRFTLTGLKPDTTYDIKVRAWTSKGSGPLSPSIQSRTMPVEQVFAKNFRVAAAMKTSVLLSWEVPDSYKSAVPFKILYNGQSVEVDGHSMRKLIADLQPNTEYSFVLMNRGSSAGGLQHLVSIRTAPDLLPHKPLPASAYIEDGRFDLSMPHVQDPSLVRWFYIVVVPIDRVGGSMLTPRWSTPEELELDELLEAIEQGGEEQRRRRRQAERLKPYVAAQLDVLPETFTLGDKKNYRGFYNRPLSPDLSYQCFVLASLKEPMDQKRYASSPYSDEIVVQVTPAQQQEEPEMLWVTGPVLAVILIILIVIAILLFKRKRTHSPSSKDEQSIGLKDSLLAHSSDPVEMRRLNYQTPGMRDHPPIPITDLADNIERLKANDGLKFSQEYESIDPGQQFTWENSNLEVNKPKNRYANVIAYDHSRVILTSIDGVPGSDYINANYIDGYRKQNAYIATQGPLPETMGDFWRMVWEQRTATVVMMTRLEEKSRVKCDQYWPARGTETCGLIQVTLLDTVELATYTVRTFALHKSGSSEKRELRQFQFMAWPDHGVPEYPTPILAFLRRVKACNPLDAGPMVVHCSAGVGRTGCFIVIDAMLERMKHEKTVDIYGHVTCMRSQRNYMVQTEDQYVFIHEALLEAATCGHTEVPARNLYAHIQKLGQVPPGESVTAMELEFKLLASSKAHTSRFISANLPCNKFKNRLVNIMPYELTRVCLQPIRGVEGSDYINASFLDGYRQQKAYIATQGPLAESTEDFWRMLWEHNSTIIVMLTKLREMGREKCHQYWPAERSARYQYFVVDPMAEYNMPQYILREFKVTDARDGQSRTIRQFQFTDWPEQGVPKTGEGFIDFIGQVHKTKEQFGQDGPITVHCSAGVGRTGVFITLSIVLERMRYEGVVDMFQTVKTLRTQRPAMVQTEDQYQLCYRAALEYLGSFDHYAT

Ki [µM] | Structure (SMILES)
> 1000 | O=C(O)COc1c(C(=O)O)sc(-c2ccc(NC(=O)CC(=O)O)cc2)c1Br
> 1000 | CN(C)c1ccc(-c2sc(C(=O)O)c(OCC(=O)O)c2Br)cc1
320 | O=C(O)COc1c(C(=O)O)sc(-c2ccc(NC(=O)c3cccnc3)cc2)c1Br
> 1000 | O=C(O)COc1c(C(=O)O)sc(-c2ccccc2)c1Br

target: T2, Tyrosine-protein phosphatase non-receptor type 1 (Homo sapiens, UniProt P18031); experiment: (§1) Inhibition of PTP1B
T2 sequence (P18031 whole entry): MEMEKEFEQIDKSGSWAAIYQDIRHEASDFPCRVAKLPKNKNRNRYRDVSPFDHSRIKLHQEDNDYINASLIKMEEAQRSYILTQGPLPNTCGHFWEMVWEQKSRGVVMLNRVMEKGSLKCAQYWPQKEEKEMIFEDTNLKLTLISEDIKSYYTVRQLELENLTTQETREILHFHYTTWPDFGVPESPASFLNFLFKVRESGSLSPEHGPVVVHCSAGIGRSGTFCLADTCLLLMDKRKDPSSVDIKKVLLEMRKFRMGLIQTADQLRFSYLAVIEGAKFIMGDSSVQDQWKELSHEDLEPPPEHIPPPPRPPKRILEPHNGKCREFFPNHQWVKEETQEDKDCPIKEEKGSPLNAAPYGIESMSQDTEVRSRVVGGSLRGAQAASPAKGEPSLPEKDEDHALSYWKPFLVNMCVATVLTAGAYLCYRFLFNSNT

Ki [µM] | Structure (SMILES)
3 | COc1ccc(-c2sc(C(=O)O)c(OCC(=O)O)c2Br)cc1
18 | O=C(O)COc1c(C(=O)O)sc(Br)c1Br
0.2 | O=C(O)COc1c(C(=O)O)sc(-c2ccc(NS(=O)(=O)c3ccc(C(F)(F)F)cc3)cc2)c1Br
1 | COC(=O)Nc1ccc(-c2sc(C(=O)O)c(OCC(=O)O)c2Br)cc1
0.5 | CC(=O)Nc1ccc(-c2sc(C(=O)O)c(OCC(=O)O)c2Br)cc1
> 1000 | O=C(O)COc1c(-c2ccccc2)csc1C(=O)O
> 1000 | O=C(O)COc1ccsc1C(=O)O
0.25 | CC1(C)CC(Nc2ccc(-c3sc(C(=O)O)c(OCC(=O)O)c3Br)cc2)CC(C)(C)C1
4 | O=C(O)COc1c(C(=O)O)sc(-c2cccnc2)c1Br
0.36 | CC(C)NC(=O)Nc1ccc(-c2sc(C(=O)O)c(OCC(=O)O)c2Br)cc1
0.6 | O=C(O)COc1c(C(=O)O)sc(-c2ccc(NC(=O)c3ccccc3)cc2)c1Br
0.62 | O=C(O)COc1c(C(=O)O)sc(-c2ccc(NC(=O)c3ccco3)cc2)c1Br
5 | O=C(O)COc1c(C(=O)O)sc(-c2ccc3ccoc3c2)c1Br
3.3 | O=C(O)COc1c(C(=O)O)sc(-c2ccc3ccccc3c2)c1Br
1.6 | Nc1ccc(-c2sc(C(=O)O)c(OCC(=O)O)c2Br)cc1
1.4 | O=C(O)COc1c(C(=O)O)sc(-c2ccsc2)c1Br
0.57 | O=C(O)COc1c(C(=O)O)sc(-c2ccc3cc[nH]c3c2)c1Br
> 1000 | Cc1csc(C(=O)O)c1OCC(=O)O
2.5 | O=C(O)COc1c(C(=O)O)sc(-c2ccc(C(=O)Nc3ccccc3)cc2)c1Br
1 | O=C(O)COc1c(C(=O)O)sc(-c2cccc(O)c2)c1Br
1.2 | CN(c1ccc(-c2sc(C(=O)O)c(OCC(=O)O)c2Br)cc1)S(=O)(=O)c1ccc(C(F)(F)F)cc1
0.74 | CS(=O)(=O)Nc1ccc(-c2sc(C(=O)O)c(OCC(=O)O)c2Br)cc1

target: T3, Tyrosine-protein phosphatase non-receptor type 1 (Homo sapiens) (UniProt P18031); experiment: as §1
T3 sequence (whole entry): T2 sequence (P18031 whole entry)

Activity | Structure (SMILES)
inactive | O=C(O)COc1c(C(=O)O)sc(-c2ccccc2)c1-c1ccccc1
